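Where inhibition never reached the appropriate level, the endpoint shown equals the highest concentration tested. Otherwise, values were interpolated linearly from a five-concentration, 48-hour dose response in 96-well plates. Abbreviation: GI50, concentration required for 50% inhibition of growth.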 Activity calls are given as the source filed them. No stated cut-off is given here; in the data, active = GI50 up to about 1.1 µM and inactive = higher. *1 amine or outer side, *2 acyl side, *3 side chain or, on linkers, in order; H or OH if unused. Where a SMILES comes first, the peptide text is derived from it. Bridges are numbered along the chain shown (N, C = ends). [ ]: non-standard residue; d: D form. The star is where a group is joined. X36 = O=C(C(CCCCNO[*:3])N[*:1])[*:2]; Fmoc = O=C(OCC1c2ccccc2-c2ccccc21)*; Boc = CC(C)(C)OC(=O)*
Experiments:
Assay in all cases: NCI-60 cell line screen, 48 h
[1] = tested on: RXF 393
[2] = tested on: HOP-92
[3] = tested on: SF-539
[4] = tested on: SF-268
[5] = tested on: OVCAR-5
[6] = tested on: CCRF-CEM
[7] = tested on: MDA-N
[8] = tested on: OVCAR-8
[9] = tested on: PC-3
[10] = tested on: SN12C
[11] = tested on: SK-OV-3
[12] = tested on: HOP-62
[13] = tested on: T47D
[14] = tested on: K562
[15] = tested on: BT-549
[16] = tested on: ACHN
[17] = tested on: RPMI-8226
[18] = tested on: CAKI-1
[19] = tested on: A498
[20] = tested on: NCI-H522

Measured: GI50

COc1cc(C=C2C(=O)NC(=S)NC2=O)cc(OC)c1OC
inactive: [1] > 100 µM | [2] > 100 µM | [3] > 100 µM | [4] > 100 µM | [5] > 100 µM | [6] > 100 µM | [7] > 100 µM | [8] > 100 µM | [9] > 100 µM | [10] > 100 µM | [11] > 100 µM | [12] > 100 µM | [13] > 100 µM | [14] > 100 µM | [15] > 100 µM | [16] > 100 µM | [17] > 100 µM | [18] > 100 µM

Cc1cccc(N2C(=O)C3c4[nH]c5ccccc5c4C4CCC(C(C)(C)C)CC4C3C2=O)c1C (stereo not drawn)
inactive: [1] > 100 µM | [2] > 100 µM | [3] 75.9 µM | [5] > 100 µM | [6] 56.6 µM | [7] > 100 µM | [8] 38.9 µM | [9] > 100 µM | [10] 78.7 µM | [11] > 100 µM | [12] > 100 µM | [19] > 100 µM | [14] > 100 µM | [15] > 100 µM | [16] > 100 µM | [17] > 100 µM | [18] > 100 µM

CCCCCCSCC/C(C)=N\OC
inactive: [20] > 100 µM | [1] > 100 µM | [2] > 100 µM | [3] > 100 µM | [4] > 100 µM | [5] > 100 µM | [6] > 100 µM | [7] > 100 µM | [8] > 100 µM | [9] > 100 µM | [10] > 100 µM | [11] > 100 µM | [12] > 100 µM | [19] > 100 µM | [14] > 100 µM | [15] > 100 µM | [16] > 100 µM | [17] > 100 µM | [18] > 100 µM

CCCCCCCCCCCCCCCc1ccc(OCC(O)CO)cc1 (stereo not drawn)
inactive: [20] 18.2 µM | [1] 18.7 µM | [2] 20.7 µM | [3] 49.7 µM | [4] 27.9 µM | [5] > 100 µM | [6] > 100 µM | [8] 25.7 µM | [10] 18 µM | [11] 99.3 µM | [12] 47.1 µM | [19] 89.5 µM | [14] > 100 µM | [16] 65 µM | [17] 18.9 µM | [18] 31.6 µM

CCN1C(=O)C(=C/C=C/c2ccc([N+](=O)[O-])cc2)C(=O)N(CC)C1=S
inactive: [1] 17 µM | [2] 18.3 µM | [3] 21.2 µM | [4] 19.3 µM | [5] > 100 µM | [6] 31.8 µM | [7] 24.4 µM | [8] 20.9 µM | [9] 19.3 µM | [10] 21.5 µM | [11] > 100 µM | [12] 19.1 µM | [13] > 100 µM | [14] 20.1 µM | [15] 16.5 µM | [16] 18.1 µM | [17] 30.8 µM | [18] 26.4 µM

O=C1CCC[C@]2(CCC[C@@H](O)C2)N1
inactive: [20] > 100 µM | [1] > 100 µM | [3] > 100 µM | [4] > 100 µM | [5] > 100 µM | [6] > 100 µM | [7] > 100 µM | [8] > 100 µM | [9] > 100 µM | [10] > 100 µM | [11] > 100 µM | [12] > 100 µM | [13] > 100 µM | [14] > 100 µM | [15] > 100 µM | [16] > 100 µM | [18] > 100 µM

COC(=O)C1Cc2c([nH]c3ccccc23)-c2[nH]c3ccccc3c2CC(NC(C)=O)C(=O)NCC(=O)N1 (stereo not drawn)
inactive: [20] > 100 µM | [1] > 100 µM | [2] 77.4 µM | [3] > 100 µM | [4] > 100 µM | [5] > 100 µM | [6] > 100 µM | [7] > 100 µM | [8] > 100 µM | [9] > 100 µM | [10] > 100 µM | [11] > 100 µM | [12] > 100 µM | [13] > 100 µM | [14] > 100 µM | [16] > 100 µM | [17] > 100 µM | [18] > 100 µM

CC(=O)Oc1c(-c2ccccc2)sc2ccccc12
inactive: [20] 19 µM | [1] 13.6 µM | [2] 15.1 µM | [3] 20.6 µM | [4] 23 µM | [5] 29.2 µM | [6] 18 µM | [8] 27.2 µM | [9] 25.5 µM | [12] 22.3 µM | [13] 10.7 µM | [19] 17.8 µM | [14] 13.9 µM | [15] 21.4 µM | [16] 15.6 µM | [17] 1.61 µM | [18] 1.33 µM

CC1(C)CC(=O)c2c([nH]c(=S)c(C#N)c2-c2ccc(Br)cc2)C1
inactive: [20] 24.2 µM | [1] 33.7 µM | [2] 17.3 µM | [3] 67.5 µM | [4] 55.2 µM | [5] > 100 µM | [6] 5.85 µM | [7] 70.5 µM | [8] 49.9 µM | [9] 30.4 µM | [10] 48.9 µM | [11] > 100 µM | [12] 41.7 µM | [19] 54 µM | [14] 43.4 µM | [15] > 100 µM | [16] 66.1 µM | [18] 20 µM

O=C1NC(=S)NC1C(Cc1ccccc1)c1ccco1 (stereo not drawn)
inactive: [20] > 100 µM | [1] > 100 µM | [2] > 100 µM | [3] > 100 µM | [4] > 100 µM | [5] > 100 µM | [6] 68.2 µM | [7] > 100 µM | [8] > 100 µM | [10] > 100 µM | [11] > 100 µM | [13] > 100 µM | [19] > 100 µM | [14] 83.4 µM | [16] > 100 µM | [17] 84.9 µM | [18] > 100 µM

COc1ccc(OC)c(/C=C/C(=O)C(C)(C)C)c1
inactive: [20] 13.8 µM | [1] 18.5 µM | [2] 18.7 µM | [3] 19.8 µM | [4] > 10 µM | [5] > 10 µM | [6] 14.3 µM | [8] 15.7 µM | [10] 21 µM | [11] 37.2 µM | [12] 23.3 µM | [19] 28.1 µM | [14] 20.8 µM | [16] 19.9 µM | [17] 13.3 µM | [18] 20.6 µM

Cc1oc2nc(N(C)C)n3nnnc3c2c1C
inactive: [20] > 100 µM | [1] 57.4 µM | [2] > 100 µM | [3] > 100 µM | [4] > 100 µM | [5] > 100 µM | [6] > 100 µM | [8] 76 µM | [10] > 100 µM | [11] 85.7 µM | [13] > 100 µM | [19] 76.2 µM | [14] > 100 µM | [15] 74.1 µM | [16] 61.9 µM | [17] > 100 µM | [18] > 100 µM

CSC1=N/C(=C\c2ccccc2)C(=O)N1CN1CCOCC1
inactive: [20] 51.8 µM | [2] > 100 µM | [4] 61.5 µM | [5] > 100 µM | [6] 36 µM | [7] > 100 µM | [8] 41.1 µM | [9] 68.9 µM | [10] > 100 µM | [11] > 100 µM | [12] > 100 µM | [19] > 100 µM | [14] 41.9 µM | [16] 38.9 µM | [17] 30.1 µM

NC(=O)CNC(=O)C1CCCN1C(=O)C1CCCCNOC(=O)CCC(NC(=O)OCC2c3ccccc3-c3ccccc32)C(=O)NC(Cc2c[nH]c3ccccc23)C(=O)N1 (stereo not drawn) (Fmoc-EW[X36]PG-NH2; ester 1-3; configuration not given here)
inactive: [20] > 100 µM | [1] > 100 µM | [2] > 100 µM | [3] > 100 µM | [4] > 100 µM | [5] > 100 µM | [6] > 100 µM | [8] > 100 µM | [9] > 100 µM | [10] > 100 µM | [11] 63.4 µM | [12] > 100 µM | [13] > 100 µM | [14] > 100 µM | [15] > 100 µM | [16] > 100 µM | [17] > 100 µM

CC(C)(C)OC(=O)NCCCCC(NC(=O)C(Cc1c[nH]c2ccccc12)NC(=O)OCC1c2ccccc2-c2ccccc21)C(=O)O (stereo not drawn) (Fmoc-Trp-Lys(Boc)-OH; configuration not given here)
inactive: [1] 59.4 µM | [2] 23.8 µM | [3] 42.3 µM | [4] 32.5 µM | [5] > 100 µM | [6] 24.7 µM | [7] 35.9 µM | [8] 44.4 µM | [9] 34.8 µM | [10] 52.2 µM | [11] 5 µM | [12] 39.5 µM | [13] 54.7 µM | [14] 18.8 µM | [15] 35.6 µM | [16] > 100 µM | [17] 25 µM | [18] 17.1 µM
